Experimental data published in patent US11419878B2, “Medicine obtained by combining FXR agonist and ARB” (Intercept Pharmaceuticals, Inc., priority 2016, dated 2022).

Legend:
[1] = system: Otsuka Long-Evans Tokushima Fatty (OLETF) rats administered porcine serum (PS); assay: Rat NASH model (OLETF rats given porcine serum), Sirius Red histology of hepatic fibrosis; assay type: in vivo; settings: obeticholic acid 30 mg/kg/day and/or losartan 30 mg/kg/day oral; for fibrosis index (FI) as fraction of the level in the positive control group: PS 8 weeks, p<0.01; for progression of hepatic fibrosis (micrographs of Sirius Red-stained liver sections): PS i.p. twice weekly 8 weeks
Protocol: As a rat NASH model, Otsuka Long-Evans Tokushima. Fatty (OLETF) rats, which are known as a model for naturally-occurring type II diabetes with obesity, were administered porcine serum (PS) in order to experimentally induce liver fibrosis, and the therapeutic effects of distilled water (vehicle administration group), obeticholic acid (an FXR agonist) and losartan (an ARB) (administration groups, combined administration group) were investigated according to the following method.
Male OLETF rats (n=40) and Long-Evans Tokushima Otsuka (LETO) rats=10; non-diabetic negative control group)
Obeticholic acid (obtained from Intercept Pharmaceuticals, Inc. via Sumitomo Dainippon Pharma Co., Ltd.) was used as an FXR agonist, and commercial losartan (potassium salt of losartan; referred to in this working example simply as “losartan”) was used as an ARB.
Obeticholic acid (30 mg/kg/day) and/or losartan (30 mg/kg/day) was/were given by forced oral administration; the administration period was 8 weeks in all cases.
12-week-old OLETF rats were randomly divided into 4 groups (G2, G3, G4, G5) (n=10 for each group) and given intraperitoneal administrations of 1.0 ml/kg of porcine serum (PS) twice weekly for 8 weeks. 12-week-old LETO rats (n=10) were taken as group G1 and administered PS in the same manner. On the same day on which PS administration was begun, the group G3 and G4 rats were respectively administered obeticholic acid (30 mg/kg/day) and losartan (30 mg/kg/day) daily for 8 weeks by forced continuous oral administration. The group G5 rats were given daily combined administration of obeticholic acid (30 mg/kg/day) and losartan (30 mg/kg/day) for 8 weeks in the same manner. The rats in the G1 group (LETO) and G2 group (OLETF) were administered distilled water as a vehicle instead of the drugs and taken as the negative and positive control group respectively (with the same administration method as in the drug groups).
In order to evaluate the progression of hepatic fibrosis, formalin-fixed paraffin-embedded liver sections (5 μm in width) were taken from rats that had completed the above testing and stained with Sirius Red. Micrographs of the stained sections were taken and collected (in all of the rats, microscopic images were collected with a total of 10 fields per sample), and the micrographs of the various groups were compared. In order to quantitate the progression of fibrosis in the various groups, a semiquantitative analysis of the histological characteristics of the images of the stained specimens collected was conducted using ImageJ software from the NIH (National Institutes of Health).

[2] = system: human hepatic stellate cells (HHSC); assay: HHSC proliferation inhibition, WST-1 cell proliferation assay; assay type: cell-based; settings: AT-II 10^-6M + LPS 10^-5M; ARB 10^-6M, obeticholic acid 5×10^-6M; 24 hours; WST-1 absorbance
Protocol: The various combined effects of obeticholic acid and three types of ARBs (losartan, valsartan, and candesartan) were confirmed in an in vitro cell system experiment. Specifically, using human hepatic stellate cells (HHSC), which are implicated in the main mechanism of progression of hepatic fibrosis in NASH, the effects of administration of obeticholic acid in combination with the three ARBs of inhibiting HHSC proliferation capacity and the expression of fibrosis markers were evaluated according to the following method. Human hepatic stellate cells (HHSC) (also referred to as human hepatic star cells) Obeticholic acid (obtained from Intercept Pharmaceuticals, Inc. via Sumitomo Dainippon Pharma Co., Ltd.) was used as an FXR agonist, and commercial losartan (potassium salt of losartan; referred to in this working example simply as “losartan”) and valsartan and candesartan ([…] of candesartan; referred to in this working example simply as “candesartan”) were used as ARBs. […] The direct action of inhibiting HIISC proliferation capacity was evaluated by means of a cell proliferation assay using WST-1 reagent. […] AT-II (10^-6M) Positive control group L […]): LPS 10^-5M) Positive control group AL ([…]): (10^-6M)+LPS (10^-5M) Obeticholic acid administration (G3): AT-II (10^-6M)+LPS (10^-5M)+obeticholic acid (5×10^-6M) ARB administration (G4): AT-II (10^-6M)+LPS (10^-5M)+ARB (10^-6M) Obeticholic acid+ARB combined administration (G5): AT-II (10^-6M)+LPS (10^-5M)+obeticholic acid (5×10^-6M)+ARB (10^-6M) 3) After the cells of the above groups (G1, G2A, G2L, G2AL, G3, G4, G5) were cultured for 24 hours, respective WST-1 cell proliferation assays were conducted, and the inhibitory effect of the pharmaceutical agents on cell proliferation was evaluated. The inhibitory effect of valsartan and candesartan on HHSC proliferation was also evaluated according to steps 1)-3) above. […]

FXR = biological target: T1, FXR (Homo sapiens, UniProt Q96RI1); settings: background statement; cited from earlier work
T1 sequence (Q96RI1 1-486): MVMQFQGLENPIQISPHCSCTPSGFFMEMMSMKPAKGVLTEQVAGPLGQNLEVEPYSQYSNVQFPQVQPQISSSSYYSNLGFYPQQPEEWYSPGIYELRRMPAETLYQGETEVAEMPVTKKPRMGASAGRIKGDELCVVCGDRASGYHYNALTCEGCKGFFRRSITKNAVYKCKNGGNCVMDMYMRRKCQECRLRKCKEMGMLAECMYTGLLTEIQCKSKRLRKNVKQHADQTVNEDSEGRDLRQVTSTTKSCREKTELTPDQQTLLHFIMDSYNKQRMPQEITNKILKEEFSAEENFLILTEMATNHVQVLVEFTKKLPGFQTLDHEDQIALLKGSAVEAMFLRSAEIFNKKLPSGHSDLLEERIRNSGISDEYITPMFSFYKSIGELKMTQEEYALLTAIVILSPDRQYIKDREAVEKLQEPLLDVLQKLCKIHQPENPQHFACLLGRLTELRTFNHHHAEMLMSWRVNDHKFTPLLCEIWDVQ

SMILES | fibrosis index (FI) as fraction of the level in the positive control group [1] | progression of hepatic fibrosis (micrographs of Sirius Red-stained liver sections) [1] | promotion of activated HHSC proliferation by AT-II and LPS, compared to positive control group AL (G2AL) [2] | FXR agonist action / FXR-stimulating action (FXR)
CCCCc1nc(Cl)c(CO)n1Cc1ccc(-c2ccccc2-c2nn[nH]n2)cc1 [losartan] | 7/10 | moderately inhibited | statistically significant inhibition | –
CC[C@H]1[C@@H](O)[C@@H]2[C@H](CC[C@]3(C)[C@@H]([C@H](C)CCC(=O)O)CC[C@@H]23)[C@@]2(C)CC[C@@H](O)C[C@@H]12 [obeticholic acid, 3α,7α-dihydroxy-6α-ethyl-5β-cholan-24-oic acid] | approximately 6/10 | moderately inhibited | – | strongest FXR-stimulating action among the semi synthetic alkylated bile acids
